Data from patent US10870638B2, “Pyridazinone compound or its salt, and herbicide containing it” (ISHIHARA SANGYO KAISHA, LTD., priority 2016, dated 2020).

Columns and labels:
Test in all cases: Test Example 1: foliar treatment, growth inhibition rate on 14th day
Assay type in all cases: in vivo
Conditions in all cases: active ingredient amount 31 g/ha, 14th day after application
[1] = test system: wheat (Triticum aestivum L.)
Source text: (§1) Upland field soil was put into a 1/300,000 hectare pot, and seeds of various plants were sown. When the respective plants reached predetermined leaf stage ((1) barnyardgrass (Echinochloa crus-[…].): 0.5 to 2.9 leaf stage, (2) crabgrass (Digitaria sanquinalis L.): 0.5 to 3.0 leaf stage, (3) green foxtail (Setaria viridis L.): 0.5 to 3.2 leaf stage, (4) wild oat (Avena fatua L.): 0.4 to 1.2 leaf stage, (5) italian ryegrass (Lolium multiflorum Lam.): 0.4 to 2.0 leaf stage, (6) redroot pigweed (Amaranthus retroflexus L.): cotyledon stage to 2.2 leaf stage, (7) rice (Oryza sativa L.): 0.2 to 2.7 leaf stage, (8) corn (Zea mays L.): 1.7 to 3.6 leaf stage, (9) wheat (Triticum aestivum L.): 1.3 to 2.3 leaf stage, (10) soybean (Glycine max Merr.); primary leaf stage), wettable powders or emulsifiable concentrates of the compounds of the present invention prepared in accordance with a conventional preparation method, were weighed so as to achieve the prescribed active ingredient amounts, and diluted with water in an amount corresponding to 1,000 liters per 1 hectare (containing 0.1 vol % of an agricultural spreader (surfactant WK manufactured by MARUWA BIOCHEMICAL Co., Ltd.)), and the spray solutions thus prepared were applied for foliar treatment by a small sprayer. On the 14th day after the application, the state of growth of the respective plants was visually observed, and the herbicidal effect was evaluated by a growth inhibition rate (%) of 0 (equivalent to the non-treated area) to 100 (complete kill).

[2] = test system: italian ryegrass (Lolium multiflorum Lam.)
Source text: as §1

[3] = test system: green foxtail (Setaria viridis L.)
Source text: as §1

corn (Zea mays L.) = test system: corn (Zea mays L.)
Source text: as §1

rice (Oryza sativa L.) = test system: rice (Oryza sativa L.)
Source text: as §1

[4] = test system: redroot pigweed (Amaranthus retroflexus L.)
Source text: as §1

[5] = test system: barnyardgrass (Echinochloa crus-qalli L.)
Source text: as §1

[6] = test system: crabgrass (Digitaria sanquinalis L.)
Source text: as §1

[7] = test system: soybean (Glycine max Merr.)
Source text: as §1

[8] = test system: wild oat (Avena fatua L.)
Source text: as §1

[9] = visual, 0 = non-treated, 100 = complete kill

SMILES	Growth inhibition rate (%) Wheat [1] [%]	Growth inhibition rate (%) Italian ryegrass [2] [%]	Growth inhibition rate (%) Green foxtail [3] [%]	Growth inhibition rate (%) Corn (corn (Zea mays L.)) [%]	Growth inhibition rate (%) Rice (rice (Oryza sativa L.)) [%]	Growth inhibition rate (%) Redroot pigweed [4] [%]	Growth inhibition rate (%) Barnyardgrass [5] [%]	Growth inhibition rate (%) Crabgrass [6] [%]	Growth inhibition rate (%) Soybean [7] [%]	Growth inhibition rate (%) Wild oat [8] [%]	Growth inhibition rate (%) Wheat [1, 9] [%]	Growth inhibition rate (%) Italian ryegrass [2, 9] [%]	Growth inhibition rate (%) Green foxtail [3, 9] [%]	Growth inhibition rate (%) Corn (corn (Zea mays L.); [9]) [%]	Growth inhibition rate (%) Rice (rice (Oryza sativa L.); [9]) [%]	Growth inhibition rate (%) Redroot pigweed [4, 9] [%]	Growth inhibition rate (%) Barnyardgrass [5, 9] [%]	Growth inhibition rate (%) Crabgrass [6, 9] [%]	Growth inhibition rate (%) Soybean [7, 9] [%]	Growth inhibition rate (%) Wild oat [8, 9] [%]
CCc1nn(C)c(=O)c(-c2cc(Oc3ncc(C(F)(F)F)cc3Cl)ccc2C)c1OC(C)OC(=O)OC (stereo not shown) [1-139]	45	98	60	50	20	0	100	80	15	88										
Cc1ccc(Oc2ncc(C(F)(F)F)cc2Cl)cc1-c1c(OC(=O)c2nn(C)cc2C)c(C)nn(C)c1=O [1-136]	90	98	100	99	25	0	100	98	0	98										
Cc1ccc(Oc2ncc(C(F)(F)F)cc2Cl)c(C)c1-c1c(O)c(C)nn(C)c1=O [1-13]	20	70	100	88	40	0	100	95	0	75										
Cc1ccc(Oc2cnc3cc(Cl)ccc3n2)cc1-c1c(OC(=O)Cc2ccccc2)c(C)nn(C)c1=O [Compound 3-47]											98	99	100	40	30	0	100	99	20	99
Cc1ccc(Oc2nc3ccc(Cl)cc3o2)cc1-c1c(O)cnn(CC2CC2)c1=O [Compound 2-186]	0	0	99	98	0	0	90	99	15	25										
CC(=O)Oc1c(C)nn(C)c(=O)c1-c1cc(Oc2ncc(C(F)(F)F)cc2Br)ccc1C [Compound 2-115]	83	98	98	98	78	20	100	95	0	100										
COC(=O)OC(C)Oc1c(C)nn(C)c(=O)c1-c1cc(Oc2ncc(C(F)(F)F)cc2Cl)c(C)cc1C (stereo not shown) [1-151]	10	83	95	35	65	30	99	99	0	95										
CCc1nn(C)c(=O)c(-c2cc(Oc3nc4ccc(Cl)cc4o3)ccc2C)c1OC(C)=O [Compound 2-122]	60	75	95	85	0	0	100	90	40	60										
Cc1ccc(Oc2ncc(Cl)cc2C(F)(F)F)cc1-c1c(O)c(C)nn(C)c1=O [Compound 2-92]	0	78	10	80	0	20	80	30	0	50										
CCCCC(=O)Oc1c(C)nn(C)c(=O)c1-c1cc(Oc2ncc(C(F)(F)F)cc2Cl)ccc1C [1-135]	100	100	100	98	90	0	100	99	0	100										
Cc1ccc(Oc2cnc3cc(Cl)ccc3n2)cc1-c1c(OS(=O)(=O)C2CC2)c(C)nn(C)c1=O [Compound 3-70]											0	40	98	30	0	0	98	88	10	60
Cc1ccc(Oc2cnc3cc(Cl)ccc3n2)cc1-c1c(OC(=O)N2CCOCC2)c(C)nn(C)c1=O [Compound 3-39]	0	0	95	15	0	0	88	0	0	0										
Cc1ccc(Oc2ccc3cc(Br)ccc3n2)cc1-c1c(O)c(C)nn(C)c1=O [Compound 2-94]	0	20	100	0	0	0	100	0	0	40										
COC(=O)OC(C)Oc1c(C)nn(C)c(=O)c1-c1cc(Oc2cnc3cc(Cl)ccc3n2)ccc1C (stereo not shown) [Compound 3-44]	85	98	100	20	85	0	100	99	10	100										
COC(=O)OC(C)Oc1c(C)nn(C)c(=O)c1-c1cc(Oc2ncc(C(F)(F)F)cc2Cl)ccc1C (stereo not shown) [1-130]	80	93	99	95	30	0	100	99	0	98										
Cc1ccc(Oc2cnc3cc(Cl)ccc3n2)cc1-c1c(OC(=O)N(C)c2ccccc2)c(C)nn(C)c1=O [Compound 3-66]											10	40	35	25	0	0	10	20	0	50
